Laboratory results: patent US20150313241A1, “Pesticidal Mixtures” (BASF Corporation, priority 2012, published 2015)

Tested on: wheat
Test: Improvement of plant height in wheat (greenhouse pot trial, Use Example H-2)
Format: in vivo
Conditions: wheat cv. J B Asano, 14 days at 20° C., % compared to untreated control (100 = 13.9 cm), pyraclostrobin 5 g ai/100 kg seeds as seed treatment, B. simplex broth 10 ml per seed as drench
Protocol: Pyraclostrobin was applied as commercial seed treatment formulation STAMINA (200 g/L a.i., BASF SE, Ludwigshafen, Germany).
In pot trials in Limburgerhof greenhouses, Bacillus simplex ABU 288 was tested in wheat and maize as solo products and in combination with pyraclostrobin to show effects on plant height. The application of the pyraclostrobin was done as seed treatment and the seeds were treated in the BASF Seed Solutions Technology Center (SSTC) Limburgerhof using a batch lab treater. The respective amounts of seeds was placed in the bowl of the treater and the slurry was dosed on the spinning disk.
The bacterials were grown in shake flasks and used as fermentation broth with a CFU of at least 1×10^12 per ml. This broth was added as a drench solution directly adjacent to the seeds with 10 ml for each seed kernel which makes 50 ml per pot.
The trial was sown in 8 cm pots and a mix of peat substrate and sand (ratio 1:4) was used as a substrate. […]
For the assessment, the plant height from all plants was measured in cm. […]
The expected relative plant height of active compound combinations were determined using Colby's formula (Colby, S. R. “Calculating synergistic and antagonistic responses of herbicide combinations”, Weeds 15, pp. 20-22, 1967) and compared with the observed efficacies. […]

pyraclostrobin
Observed relative plant height: 99.4%
